Results published in PMC3319192 (Molecular Pharmaceutics, 2012).

Experiments:
[1] = target: T1, wildtype OATP1B3 (Homo sapiens, UniProt Q9NPD5)
T1 sequence (Q9NPD5 1-702): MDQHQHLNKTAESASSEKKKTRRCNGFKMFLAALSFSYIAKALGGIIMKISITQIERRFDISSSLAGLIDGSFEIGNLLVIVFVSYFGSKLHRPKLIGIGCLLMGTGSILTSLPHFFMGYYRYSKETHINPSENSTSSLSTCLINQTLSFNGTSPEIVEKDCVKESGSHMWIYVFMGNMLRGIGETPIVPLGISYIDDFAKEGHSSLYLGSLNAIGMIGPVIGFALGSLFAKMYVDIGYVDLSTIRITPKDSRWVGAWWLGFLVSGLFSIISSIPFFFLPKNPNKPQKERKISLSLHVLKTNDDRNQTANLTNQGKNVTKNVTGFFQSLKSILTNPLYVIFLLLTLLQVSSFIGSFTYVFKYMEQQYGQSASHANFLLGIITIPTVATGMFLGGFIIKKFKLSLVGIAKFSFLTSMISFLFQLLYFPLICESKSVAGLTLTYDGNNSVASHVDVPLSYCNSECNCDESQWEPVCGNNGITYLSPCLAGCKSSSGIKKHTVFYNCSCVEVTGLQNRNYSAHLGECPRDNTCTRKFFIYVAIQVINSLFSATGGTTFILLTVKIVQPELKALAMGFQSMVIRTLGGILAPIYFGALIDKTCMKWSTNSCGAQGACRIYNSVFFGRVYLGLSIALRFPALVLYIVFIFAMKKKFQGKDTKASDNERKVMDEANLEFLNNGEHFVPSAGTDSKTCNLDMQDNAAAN

[2] = target: T2, OATP1B1 A45G/L545S/T615I (Homo sapiens, UniProt Q9Y6L6, A45G/L545S/T615I)
T2 sequence (Q9Y6L6 1-691 A45G/L545S/T615I): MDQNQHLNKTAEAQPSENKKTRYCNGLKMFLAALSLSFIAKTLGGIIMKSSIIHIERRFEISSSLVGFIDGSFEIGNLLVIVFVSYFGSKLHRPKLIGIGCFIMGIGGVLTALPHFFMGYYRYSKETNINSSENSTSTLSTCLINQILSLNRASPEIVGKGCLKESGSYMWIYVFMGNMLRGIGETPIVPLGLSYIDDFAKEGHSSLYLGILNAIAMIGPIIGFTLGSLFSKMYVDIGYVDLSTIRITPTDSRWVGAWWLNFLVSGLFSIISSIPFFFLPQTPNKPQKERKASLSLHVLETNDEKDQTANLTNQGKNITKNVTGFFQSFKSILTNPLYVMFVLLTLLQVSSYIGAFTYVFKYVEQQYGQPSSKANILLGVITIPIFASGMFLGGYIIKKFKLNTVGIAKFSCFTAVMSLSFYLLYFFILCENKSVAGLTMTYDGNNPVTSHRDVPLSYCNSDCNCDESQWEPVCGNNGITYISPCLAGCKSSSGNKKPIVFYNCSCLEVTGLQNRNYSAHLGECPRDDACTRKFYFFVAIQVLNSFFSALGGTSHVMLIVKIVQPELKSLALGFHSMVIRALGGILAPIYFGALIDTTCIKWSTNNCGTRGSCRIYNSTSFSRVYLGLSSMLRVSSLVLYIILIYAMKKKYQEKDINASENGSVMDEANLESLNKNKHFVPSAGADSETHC

Substance: L-aspartyl-L-tryosyl-L-methionylgylcyl-L-tryptophyl-L-methionyl-L-aspartyl-L-phenylalaninamide hydrogen sulfate ester [CCK-8]
- Km [1]: 6.5 ± 2 µM
- Km [2]: 15.4 ± 4.2 µM
